Test results as given in paper PMC5485613, “A novel TRPM8 agonist relieves dry eye discomfort” (BMC Ophthalmology, 2017).

What was measured:
human TRPM8 = biological target: T1, human TRPM8 (Homo sapiens, UniProt Q7Z2W7); test: TRPM8 calcium assay (Fluo-8, FLIPR) in transfected CHO cells; assay type: cell-based; details: x Menthol
T1 construct: host or cells: CHO cells, stably transfected
Experimental: Compounds were tested on Chinese Hamster Ovary (CHO) cells stably transfected with human TRPM8 cDNAs using a Fluo-8 calcium kit and a Fluorescence Imaging Plate Reader ([…]™) instrument. […] Solutions were prepared by diluting stock solutions in a HEPES-buffered physiological saline (HBPS) solution. Test compound and control formulations were loaded in polypropylene or glass-lined 384-well plates, and placed into the FLIPR instrument (Molecular Devices Corporation, Union City, CA, USA). Each was tested at 8 concentrations with n = 4 replicates per determination. […] For […]™ assay, cells were plated in 384-well black wall, flat clear-bottom microtiter plates (Type: BD Biocoat Poly-D-Lysine Multiwell Cell Culture Plate) at approximately 30,000 cells per well. Cells were incubated at 37 °C overnight to reach a near confluent monolayer appropriate for use in a fluorescence assay. The test procedure was to remove the growth media and to add 40 μL of HBPS containing Fluo-8 for 30 min at 37 °C. 10 μL of test compound, vehicle, or control solutions in HBPS were added to each well and read for 4 min. Concentration-response data were analyzed via the FLIPR Control software that is supplied with the FLIPR System (MDS-AT) and fitted to a Hill equation.

mouse TRPV1 = biological target: T2, mouse TRPV1 (Mus musculus, UniProt Q704Y3); test: TRPV1 calcium imaging (Fura-2) in transfected KNRK cells; assay type: cell-based; details: 10 μM
T2 construct: expressed in transfected cells; host or cells: KNRK cells (rat kidney), transiently transfected
Experimental: (§1) To further examine the specificity of C3, tests were conducted on TRPV1 channels and TRPA1 channels expressed in Kirsten murine sarcoma virus transformed rat kidney (KNRK) cells. KNRK cells were cultured as a monolayer and maintained in Dulbeccos’s Modified Eagles’s Medium (Life Technologies), supplemented with 10% fetal bovine serum (Life Technologies), 100 units/mL penicillin and 100 μg/mL streptomycin, in an incubator of 5% CO2 at 37 °C. After suspension, the cells were coated on cover slips for 12 h, then transiently transfected with cDNA (pc3.1 DNA) for TRPV1 or TRPA1 with Lipofectamine 2000 (Invitrogen) for 24 h, and loaded with Fura-2 AM™ (Molecular Probes) for 40 min at 37 °C. After washing and recovery, KNRK cells were imaged at 340 and 380 nm excitation to detect free calcium influx. An increase of 50% of the 340/380 ratio was considered as the response threshold which were measured under masked conditions for plasmids. Compounds were applied to the bath and calcium response was acquired by an inverted Nikon fluorescence microscope with a CoolSnap HQ2 CCD camera (Photometrics, Tucson, AZ). Data were quantified offline with the Nikon-NIS program.

[1] = parameters: method as in ref 28 = [28]; 28. Wei ET. Topical agents for the treatment of sensory discomfort in the nasal membranes. US20150265752 A1, Sept. 24, 2015.; details: cited from earlier work
eye = details: cited from earlier work
human TRPA1 = biological target: T3, human TRPA1 (Homo sapiens, UniProt O75762); test: TRPA1 calcium imaging (Fura-2) in transfected KNRK cells; assay type: cell-based; details: positive control, 100 μM
T3 construct: expressed in transfected cells; host or cells: KNRK cells (rat kidney), transiently transfected
Experimental: as §1

TRPM8-sensory neurons = test: Calcium imaging of primary sensory neurons from Trpm8 EGFP mice; assay type: cell-based, mouse; details: menthol 100 μM
Experimental: Calcium imaging was used to test the C3 selectivity on TRPM8-sensory neurons. Trpm8 ^+/EGFPmice were gifted by Dr. Yu-Qing Cao, Pain Center of Washington University in Saint Louis, School of Medicine, Missouri. Trigeminal ganglions and dorsal root ganglions from 4 to 5 weeks old mice were collected after CO2 euthanasia and digested for 30–40 min before plated on cover slips (8 mm), which were coated with poly-D-lysine for 40 min before use. Cover slips were gently washed with culture media to remove myelin after incubating for 35–40 min. Calcium imaging was done after incubation overnight at 37 °C, 5% CO2. Neurons were loaded with Fura-2 AM™ (Molecular Probes) for 30 min at room temperature. After washing and recovery, neurons were imaged at 340 and 380 nm excitation to detect free calcium influx. An increase of 50% of the 340/380 ratio was considered as the response threshold which were measured under blinded conditions for genotypes. Compounds were applied to the bath and calcium response was acquired by an inverted Nikon fluorescence microscope with a CoolSnap HQ2 CCD camera (Photometrics, Tucson, AZ). Data was quantified offline with the Nikon-NIS program.

[2] = tested on: hNav1.7 (sodium channels); parameters: method as in ref 63 = [63]; 63. Wei ET. Design of Topical Sensory/cooling TRPM8 agonists for cough. Abstracts of the First International Cough Conference, Guangzhou, China, November 10–11, 2013.; details: 5 μM; cited from earlier work
cornea = tested on: cornea; parameters: method as in ref 62 = [62]; 62. Sung MS, Lee HS, Yang JM, Kim JG, Wei ET, Kim SJ, Yoon KC. paper presented at the 111th Annual Meeting of the Korean Ophthalmological Society, Busan, South Korea. 2014.; details: 2 mg/mL solution sprayed onto the closed eyelid; cited from earlier work

T1 sequence (Q7Z2W7 whole entry): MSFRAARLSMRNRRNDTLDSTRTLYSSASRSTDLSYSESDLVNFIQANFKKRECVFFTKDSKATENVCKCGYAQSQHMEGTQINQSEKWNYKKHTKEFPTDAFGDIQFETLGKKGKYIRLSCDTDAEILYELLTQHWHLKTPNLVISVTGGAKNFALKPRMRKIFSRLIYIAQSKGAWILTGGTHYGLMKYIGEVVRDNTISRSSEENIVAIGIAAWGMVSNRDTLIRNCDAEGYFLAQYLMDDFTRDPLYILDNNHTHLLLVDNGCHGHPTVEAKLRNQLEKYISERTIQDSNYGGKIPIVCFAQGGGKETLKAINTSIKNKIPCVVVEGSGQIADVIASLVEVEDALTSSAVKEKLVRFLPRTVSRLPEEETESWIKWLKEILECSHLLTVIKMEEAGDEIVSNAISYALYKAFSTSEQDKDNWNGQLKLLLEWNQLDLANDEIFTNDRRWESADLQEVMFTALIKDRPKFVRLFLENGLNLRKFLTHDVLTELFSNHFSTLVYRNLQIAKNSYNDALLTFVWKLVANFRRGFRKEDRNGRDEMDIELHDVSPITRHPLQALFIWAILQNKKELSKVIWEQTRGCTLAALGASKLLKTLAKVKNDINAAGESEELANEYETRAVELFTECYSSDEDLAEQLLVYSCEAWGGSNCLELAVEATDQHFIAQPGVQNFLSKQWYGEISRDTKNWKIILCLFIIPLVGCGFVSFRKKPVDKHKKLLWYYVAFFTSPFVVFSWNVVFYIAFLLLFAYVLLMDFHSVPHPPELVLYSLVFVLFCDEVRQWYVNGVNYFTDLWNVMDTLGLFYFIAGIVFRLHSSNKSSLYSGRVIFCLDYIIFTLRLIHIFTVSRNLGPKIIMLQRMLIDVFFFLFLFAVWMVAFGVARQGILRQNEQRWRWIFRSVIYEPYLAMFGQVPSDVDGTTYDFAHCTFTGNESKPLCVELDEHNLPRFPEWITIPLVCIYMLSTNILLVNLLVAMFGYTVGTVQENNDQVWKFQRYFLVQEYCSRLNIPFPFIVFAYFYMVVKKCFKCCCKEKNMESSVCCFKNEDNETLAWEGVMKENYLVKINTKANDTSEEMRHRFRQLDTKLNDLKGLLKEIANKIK
T3 sequence (O75762 whole entry): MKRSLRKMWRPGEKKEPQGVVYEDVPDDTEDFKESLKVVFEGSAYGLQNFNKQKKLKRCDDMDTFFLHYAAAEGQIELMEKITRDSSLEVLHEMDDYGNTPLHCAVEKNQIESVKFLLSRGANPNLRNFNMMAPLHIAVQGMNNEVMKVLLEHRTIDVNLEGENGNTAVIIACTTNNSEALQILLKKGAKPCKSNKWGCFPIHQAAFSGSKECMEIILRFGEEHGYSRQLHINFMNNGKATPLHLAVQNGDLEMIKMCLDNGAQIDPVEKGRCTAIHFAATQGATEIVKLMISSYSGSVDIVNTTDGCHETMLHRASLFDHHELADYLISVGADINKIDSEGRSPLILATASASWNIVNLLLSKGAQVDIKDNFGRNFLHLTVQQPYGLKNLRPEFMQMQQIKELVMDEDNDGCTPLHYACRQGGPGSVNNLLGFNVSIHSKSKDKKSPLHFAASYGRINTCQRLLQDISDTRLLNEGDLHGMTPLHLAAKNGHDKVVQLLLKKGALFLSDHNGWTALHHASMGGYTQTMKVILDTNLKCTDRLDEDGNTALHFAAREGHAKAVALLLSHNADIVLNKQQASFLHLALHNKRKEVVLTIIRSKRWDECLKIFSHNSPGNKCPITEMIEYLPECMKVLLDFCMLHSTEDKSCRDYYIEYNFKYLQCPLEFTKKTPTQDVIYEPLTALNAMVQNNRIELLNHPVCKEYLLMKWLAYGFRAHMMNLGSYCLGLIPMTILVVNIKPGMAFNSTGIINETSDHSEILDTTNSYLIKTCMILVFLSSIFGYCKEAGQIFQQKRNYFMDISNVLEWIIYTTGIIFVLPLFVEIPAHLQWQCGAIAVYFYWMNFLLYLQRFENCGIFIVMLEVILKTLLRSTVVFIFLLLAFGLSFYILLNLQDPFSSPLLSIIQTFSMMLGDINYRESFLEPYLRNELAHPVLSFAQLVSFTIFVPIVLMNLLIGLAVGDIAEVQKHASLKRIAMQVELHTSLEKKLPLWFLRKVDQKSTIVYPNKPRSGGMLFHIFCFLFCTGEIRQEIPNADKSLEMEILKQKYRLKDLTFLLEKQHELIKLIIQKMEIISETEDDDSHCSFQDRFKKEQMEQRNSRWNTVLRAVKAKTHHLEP
T2 sequence (Q704Y3 whole entry): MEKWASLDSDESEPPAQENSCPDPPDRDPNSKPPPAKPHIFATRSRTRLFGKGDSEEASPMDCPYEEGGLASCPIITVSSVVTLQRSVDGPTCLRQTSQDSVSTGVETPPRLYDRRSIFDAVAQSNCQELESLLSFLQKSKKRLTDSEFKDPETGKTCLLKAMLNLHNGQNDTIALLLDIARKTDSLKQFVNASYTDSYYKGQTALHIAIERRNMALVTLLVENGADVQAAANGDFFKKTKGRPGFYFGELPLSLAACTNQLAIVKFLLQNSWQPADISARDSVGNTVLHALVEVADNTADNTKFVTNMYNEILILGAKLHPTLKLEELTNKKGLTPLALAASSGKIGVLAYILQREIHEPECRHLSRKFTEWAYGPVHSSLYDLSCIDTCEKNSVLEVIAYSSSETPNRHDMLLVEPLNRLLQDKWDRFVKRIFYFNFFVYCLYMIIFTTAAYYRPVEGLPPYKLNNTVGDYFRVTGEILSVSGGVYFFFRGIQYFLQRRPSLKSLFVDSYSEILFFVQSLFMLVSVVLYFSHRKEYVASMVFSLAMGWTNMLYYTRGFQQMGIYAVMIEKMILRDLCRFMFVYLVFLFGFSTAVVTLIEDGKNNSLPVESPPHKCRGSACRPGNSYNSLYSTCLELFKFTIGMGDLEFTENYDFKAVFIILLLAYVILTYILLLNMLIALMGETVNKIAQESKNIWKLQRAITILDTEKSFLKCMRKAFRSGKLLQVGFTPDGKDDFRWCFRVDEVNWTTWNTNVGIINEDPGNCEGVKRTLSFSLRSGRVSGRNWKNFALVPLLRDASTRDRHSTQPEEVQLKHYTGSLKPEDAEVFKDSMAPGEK

Row | Compound | relative potency to l-menthol (menthol = 1) (human TRPM8) | other results
1 | CCC(C)P(=O)(CCC(C)C)C(C)CC (stereo not shown) [1-di-sec-butylphosphoryl-3-methyl-butane] | 0.9 | –
2 | CCCCCCP(=O)(C(C)C)C(C)C [1-diisopropylphosphoryl-hexane] | 1.6 | –
3 | CCCCP(=O)(C(C)CC)C(C)CC (stereo not shown) [1-di-sec-butylphosphoryl-4] | 0.3 | –
4 | COc1cc(CNC(=O)CCCC/C=C/C(C)C)ccc1O [capsaicin, reference compound] | – | activation of TRPV1 (calcium response) (mouse TRPV1): active
5 | CCCCCCP(=O)(C(C)CC)C(C)CC (stereo not shown) [1-di-sec-butylphosphoryl-hexane] | 4.7 | –
6 | O=C1NC(c2cccc([N+](=O)[O-])c2)=CCN1c1ccccc1O [Icilin, icilin] | – | solubility in ophthalmic vehicles [1]: not soluble; sensation on the eyelids (eye; anecdotal): punctate and long-lasting cooling
7 | CCCCCP(=O)(C(C)C)C(C)C [1-diisopropylphosphoryl-pentane] | 0.7 | –
8 | CCCCCCCCP(=O)(C(C)CC)C(C)CC (stereo not shown) [1-di-sec-butylphosphoryl-octane] | 2.9 | –
9 | C=CCN=C=S [mustard oil, reference compound] | – | activation of TRPA1 (calcium response) (human TRPA1): active
10 | CC(C)[C@@H]1CC[C@@H](C)C[C@H]1O [l-menthol, reference compound] | – | eye sensation after menthol solutions (eye): stinging followed by a brief episode of cooling; calcium response of Trpm8 EGFPf/+ neurons (TRPM8-sensory neurons): sensitive
11 | CCCCCCCP(=O)(C(C)CC)C(C)CC (stereo not shown) [1-di-sec-butylphosphoryl-heptane] | 3.4 | –
12 | CCCCCCCCP(=O)(C(C)C)C(C)C [1-diisopropylphosphoryl-octane] | 5.4 | –
13 | CCCCCP(=O)(C(C)CC)C(C)CC (stereo not shown) [1-di-sec-butylphosphoryl-pentane] | 2.2 | lidocaine-like activity on hNav1.7 [2]: did not have lidocaine-like activity; corneal sensitivity (cornea): not affected
14 | CCCCCP(=O)(CC(C)C)CC(C)C [1-diisobutylphosphoryl-pentane] | 0.2 | –
15 | CCCCCCCP(=O)(C(C)C)C(C)C [1-diisopropylphosphoryl-heptane] | 5.4 | –
